Reference: patent US20230374038A1, “MODULATORS OF CYSTIC FIBROSIS TRANSMEMBRANE CONDUCTANCE REGULATOR” (VERTEX PHARMACEUTICALS INCORPORATED, priority 2020, published 2023)

Target: CFTR (Homo sapiens, UniProt P13569)
Assay: Membrane Potential Dye, Enteroid Assay B
Format: cell-based
Details: for EC50: read-out: Ent. B EC50
Description: Base medium (ADF+++) consisted of Advanced DMEM/Ham's F12, 2 mM Glutamax, 10 mM HEPES, 1 µg/mL penicillin/streptomycin.
Intestinal enteroid maintenance medium (IEMM) consisted of ADF+++, 1× B27 supplement, 1× N2 supplement, 1.25 mM N-acetyl cysteine, 10 mM Nicotinamide, 50 ng/mL hEGF, 10 nM Gastrin, 1 pg/mL hR-spondin-1, 100 ng/mL hNoggin, TGF-b type 1 inhibitor A-83-01, 100 μg/mL Primocin, […] P38 MAPK inhibitor SB202190.
Bath 1 Buffer consisted of 1 mM MgCl2, 160 mM NaCl, 4.5 mM KCl, 10 mM HEPES, 10 mM Glucose, 2 mM CaCl2).
Chloride Free Buffer consisted of 1 mM Magnesium Gluconate, 2 mM Calcium Gluconate, 4.5 mM Potassium Gluconate, 160 mM Sodium Gluconate, 10 mM HEPES, 10 mM Glucose.
Bath1 Dye Solution consisted of Bath 1 Buffer, 0.04% Pluronic F127, […] Methyl Oxonol, 30 μM CaCCinh-A01, 30 μM Chicago Sky Blue.
Chloride Free Dye Solution consisted of Chloride Free Buffer, 0.04% Pluronic F127, 20 μM Methyl Oxonol, 30 μM CaCCinh-A01, 30 μM Chicago Sky Blue.
Chloride Free Dye Stimulation Solution consisted of Chloride Free Dye Solution, 10 μM forskolin, 100 μM IBMX, and 300 nM Compound III.
Human intestinal epithelial enteroid cells were obtained from the Hubrecht Institute for Developmental Biology and Stem Cell Research, Utrecht, The Netherlands and expanded in T-Flasks as previously described (Dekkers J F, Wiegerinck C L, de Jonge H R, Bronsveld I, Janssens H M, de Winter-de Groot K M, Brandsma A M, de Jong N W M, Bijvelds M J C, Scholte B J, Nieuwenhuis E E S, van den Brink S, Clevers H, van der Ent C K, Middendorp S and M Beekman J M. A functional CFTR assay using primary cystic fibrosis intestinal organoids. Nat Med. 2013 July; 19(7):939-45.).
Cells were recovered in cell recovery solution, collected by centrifugation at 650 rpm for 5 min at 4° C., resuspended in TryPLE and incubated for 5 min at 37° C. Cells were then collected by centrifugation at 650 rpm for 5 min at 4° C. and resuspended in IEMM containing 10 μM ROCK inhibitor (RI). The cell suspension was passed through a 40 μm cell strainer and resuspended at 1×10^6 cells/mL in IEMM containing 10 μM RI. Cells were seeded at 5000 cells/well into multi-well plates and incubated for overnight at 37° C., 95% humidity and 5% CO2 prior to assay.
Enteroid cells were incubated with test compound in IEMM for 18-24 hours at 37° C., 95% humidity and 5% CO2. […] Briefly, cells were washed 5 times in Bath 1 Buffer. Bath 1 Dye Solution was added and the cells were incubated for 25 min at room temperature. Following dye incubation, cells were washed 3 times in Chloride Free Dye Solution. Chloride transport was initiated by addition of Chloride Free Dye Stimulation Solution and the fluorescence signal was read for 15 min. […] Chloride transport was then expressed as a percentage of the chloride transport following treatment with 1 μM (14S)-8-[3-(2-{Dispiro[2.0.2.1]heptan-7-yl}ethoxy)-1H-pyrazol-1-yl]-12,12-dimethyl-2λ^6-thia-3,9,11,18,23-pentaazatetracyclo[17.3.1.111,14.05,10]tetracosa-1(22),5,7,9,19(23),20-hexaene-2,2,4-trione, 3 μM (R)-1-(2,2-difluorobenzo[d][1,3]dioxol-5-yl)-N-(1-(2,3-dihydroxypropyl)-6-fluoro-2-(1-hydroxy-2-methylpropan-2-yl)-1H-indol-5-yl)cyclopropanecarboxamide and 300 nM acute N-[2,4-bis(1,1-dimethylethyl)-5-hydroxyphenyl]-1,4-dihydro-4-oxoquinoline-3-carboxamide triple combination control (% Activity).

Chain of CFTR (P13569 with tags, fused parts or gaps DEL508-508): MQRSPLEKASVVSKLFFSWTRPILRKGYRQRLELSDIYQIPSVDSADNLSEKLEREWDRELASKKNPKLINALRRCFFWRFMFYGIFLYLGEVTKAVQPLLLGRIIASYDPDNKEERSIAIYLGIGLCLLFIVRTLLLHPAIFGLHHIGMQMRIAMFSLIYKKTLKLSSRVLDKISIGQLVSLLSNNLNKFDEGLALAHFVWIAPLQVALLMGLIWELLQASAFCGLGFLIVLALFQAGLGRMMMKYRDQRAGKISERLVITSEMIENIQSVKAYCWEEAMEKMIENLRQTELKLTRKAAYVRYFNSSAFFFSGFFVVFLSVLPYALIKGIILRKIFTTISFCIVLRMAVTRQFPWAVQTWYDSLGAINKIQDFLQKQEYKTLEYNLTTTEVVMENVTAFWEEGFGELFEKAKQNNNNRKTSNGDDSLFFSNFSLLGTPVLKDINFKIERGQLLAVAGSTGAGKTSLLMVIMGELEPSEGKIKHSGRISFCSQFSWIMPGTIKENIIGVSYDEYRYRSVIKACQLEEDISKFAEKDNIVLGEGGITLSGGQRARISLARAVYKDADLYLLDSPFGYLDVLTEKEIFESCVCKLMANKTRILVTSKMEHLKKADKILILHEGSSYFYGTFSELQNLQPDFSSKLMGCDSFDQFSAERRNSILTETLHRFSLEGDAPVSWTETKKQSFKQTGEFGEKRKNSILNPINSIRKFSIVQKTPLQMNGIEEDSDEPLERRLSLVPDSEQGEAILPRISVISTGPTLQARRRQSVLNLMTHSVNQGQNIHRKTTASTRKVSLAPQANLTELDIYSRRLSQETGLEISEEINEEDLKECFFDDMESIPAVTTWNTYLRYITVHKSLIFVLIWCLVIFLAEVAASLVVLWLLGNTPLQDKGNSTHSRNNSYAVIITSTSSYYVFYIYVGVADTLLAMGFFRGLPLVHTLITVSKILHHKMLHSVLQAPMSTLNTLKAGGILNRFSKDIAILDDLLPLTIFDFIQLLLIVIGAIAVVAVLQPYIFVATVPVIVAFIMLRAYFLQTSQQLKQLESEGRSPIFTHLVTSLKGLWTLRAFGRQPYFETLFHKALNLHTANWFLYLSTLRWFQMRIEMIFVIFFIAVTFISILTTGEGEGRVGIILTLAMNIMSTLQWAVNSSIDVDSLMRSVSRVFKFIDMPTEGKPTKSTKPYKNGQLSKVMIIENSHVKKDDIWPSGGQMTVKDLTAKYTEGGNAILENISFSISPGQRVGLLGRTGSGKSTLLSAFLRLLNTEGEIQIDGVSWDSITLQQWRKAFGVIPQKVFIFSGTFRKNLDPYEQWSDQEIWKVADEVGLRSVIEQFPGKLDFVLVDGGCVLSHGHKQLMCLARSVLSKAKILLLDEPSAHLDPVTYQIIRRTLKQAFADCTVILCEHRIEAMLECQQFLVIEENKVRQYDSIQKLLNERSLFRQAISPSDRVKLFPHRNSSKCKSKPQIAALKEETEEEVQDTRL

| SMILES | Ent. B Max Activity | EC50 [nM] |
| --- | --- | --- |
| Cc1cccc(C)c1-c1nc2nc(c1C)OC[C@@H](CC(C)(C)O)NC(=O)c1cccc(c1)S(=O)(=O)N2 [Compound 105, (11R)-6-(2,6-Dimethylphenyl)-11-(2-hydroxy-2-methyl-propyl)-7-methyl-2,2-dioxo-9-oxa-2λ^6-thia-3,5,12,19-tetrazatricyclo[12.3.1.14,8]nonadeca-1(18),4(19),5,7,14,16-hexaen-13-one] | +++ (+++ is >60%) | 3000 to 30000 |
| Cc1cccc(C)c1-c1nc2nc(c1C)OC[C@@H](CCC(C)(C)O)N(CCCC(C)(C)O)C(=O)c1cccc(c1)S(=O)(=O)N2 [Compound 109] | ++ (++ is 30-60%) | 3000 to 30000 |
| Cc1cccc(C)c1-c1nc2nc(c1C)OCCN(C1CC3(CC(NC(=O)OC(C)(C)C)C3)C1)C(=O)c1cccc(c1)S(=O)(=O)N2 (stereo not shown) [Compound 37] | ++ (++ is 30-60%) | < 1000 |
| Cc1cccc(C)c1-c1nc2nc(c1C)OC[C@@H](CC(C)(C)C)N(C1CC3(CC(N(C)C)C3)C1)C(=O)c1cccc(c1)S(=O)(=O)N2 (stereo partly shown) [Compound 95] | +++ (+++ is >60%) | < 1000 |
| Cc1cccc(C)c1-c1nc2nc(c1C)OC[C@@H](CC(C)(C)C)N(C1CC3(CC(CO)C3)C1)C(=O)c1cccc(c1)S(=O)(=O)N2 (stereo in doubt) [Compound 78] | +++ (+++ is >60%) | < 1000 |
| Cc1cccc(C)c1-c1nc2nc(c1C)OC[C@@H](CC(C)(C)C)N(C1CC3(CC(N)C3)C1)C(=O)c1cccc(c1)S(=O)(=O)N2 (stereo partly shown) [Compound 96] | +++ (+++ is >60%) | < 1000 |
| Cc1cccc(C)c1-c1nc2nc(c1C)O[C@H](C)CNC(=O)c1cccc(c1)S(=O)(=O)N2 [Compound 202] | ++ (++ is 30-60%) | 1000 to 3000 |
| Cc1cccc(C)c1-c1nc2nc(c1C)OC[C@@H](CC(C)C)N([C@H]1C[C@@]3(C[C@H](N(C)C)C3)C1)C(=O)c1cccc(c1)S(=O)(=O)N2 (single isomer, unassigned) [Compound 53] | +++ (+++ is >60%) | < 1000 |
| Cc1cccc(C)c1-c1nc2nc(c1C)OC(c1ccc(CC3(C(F)(F)F)CC3)cn1)CN(C)C(=O)c1cccc(c1)S(=O)(=O)N2 (stereo not shown) [Compound 203] | +++ (+++ is >60%) | < 1000 |
| Cc1cccc(C)c1-c1nc2nc(c1C1=CCN(C(=O)OC(C)(C)C)CC1)O[C@H](C)CNC(=O)c1cccc(c1)S(=O)(=O)N2 [Compound 149] | ++ (++ is 30-60%) | < 1000 |
| COc1ccccc1-c1c2nc(nc1-c1c(C)cccc1C)NS(=O)(=O)c1cccc(c1)C(=O)N[C@H](C)CO2 [Compound 123, (11R)-6-(2,6-Dimethylphenyl)-7-(2-methoxyphenyl)-11-methyl-2,2-dioxo-9-oxa-2λ^6-thia-3,5,12,19-tetrazatricyclo[12.3.1.14,8]nonadeca-1(18),4(19),5,7,14,16-hexaen-13-one] | +++ (+++ is >60%) | 1000 to 3000 |
| Cc1cccc(C)c1-c1nc2nc(c1C)OC(c1ccc(CC3(C(F)(F)F)CC3)cn1)CN(C)C(=O)c1cccc(c1)S(=O)(=O)N2 (stereo not shown) [Compound 204] | ++ (++ is 30-60%) | < 1000 |
| Cc1cccc(C)c1-c1nc2nc(c1C)OC[C@@H](CC(C)(C)C)N(C1CC3(CC(N(C)C)C3)C1)C(=O)c1cccc(c1)S(=O)(=O)N2 (stereo partly shown) [Compound 94] | +++ (+++ is >60%) | < 1000 |
| COC(=O)NC1CC2(C1)CC(N1C(=O)c3cccc(c3)S(=O)(=O)Nc3nc(c(C)c(-c4c(C)cccc4C)n3)OC[C@H]1CC(C)(C)C)C2 (single isomer, unassigned) [Compound 64] | +++ (+++ is >60%) | < 1000 |
| Cc1cccc(C)c1-c1nc2nc(c1C)OC[C@@H](CC(C)(C)C)N(C1CC3(CC(NC(=O)OC(C)(C)C)C3)C1)C(=O)c1cccc(c1)S(=O)(=O)N2 (single isomer, unassigned) [Compound 59] | +++ (+++ is >60%) | < 1000 |
| COC(=O)NC1CC2(C1)CC(N1C(=O)c3cccc(c3)S(=O)(=O)Nc3nc(c(C)c(-c4c(C)cccc4C)n3)OC[C@H]1CC1(C(F)(F)F)CC1)C2 (stereo in doubt) [Compound 88] | +++ (+++ is >60%) | < 1000 |
| Cc1cccc(C)c1-c1nc2nc(c1C)OC[C@@H](CC(C)C)NC(=O)c1cccc(c1)S(=O)(=O)N2 [Compound 73] | +++ (+++ is >60%) | < 1000 |
| Cc1cccc(C)c1-c1nc2nc(c1C)OC[C@@H](CC(C)(C)O)N(Cc1ncccn1)C(=O)c1cccc(c1)S(=O)(=O)N2 [Compound 111] | +++ (+++ is >60%) | 1000 to 3000 |
| COCCN1CCC2(CC1)CC(N1C(=O)c3cccc(c3)S(=O)(=O)Nc3nc(c(C)c(-c4c(C)cccc4C)n3)OC[C@H]1CC(C)C)C2 [Compound 55, (11R)-6-(2,6-Dimethylphenyl)-11-isobutyl-12-[7-(2-methoxyethyl)-7-azaspiro[3.5]nonan-2-yl]-7-methyl-2,2-dioxo-9-oxa-2λ^6-thia-3,5,12,19-tetrazatricyclo[12.3.1.14,8]nonadeca-1(18),4(19),5,7,14,16-hexaen-13-one] | +++ (+++ is >60%) | < 1000 |
| COC(=O)NC1CC2(C1)CC(N1C(=O)c3cccc(c3)S(=O)(=O)Nc3nc(c(C)c(-c4c(C)cccc4C)n3)OC[C@H]1CC(C)(C)C)C2 (single isomer, unassigned) [Compound 61] | +++ (+++ is >60%) | < 1000 |
| Cc1cccc(C)c1-c1nc2nc(c1C)OC[C@@H](CC(C)(C)C)NC(=O)c1cccc(c1)S(=O)(=O)N2 [Compound 102] | +++ (+++ is >60%) | < 1000 |
| Cc1cccc(C)c1-c1nc2nc(c1-c1cnn(C)c1)OC[C@@H](C)NC(=O)c1cccc(c1)S(=O)(=O)N2 [Compound 146] | + (+ is <30%) | – |
| Cc1cccc(C)c1-c1nc2nc(c1C1=CCOCC1)O[C@H](C)CNC(=O)c1cccc(c1)S(=O)(=O)N2 [Compound 152] | ++ (++ is 30-60%) | 3000 to 30000 |
| COC1CC(N2C(=O)c3cccc(c3)S(=O)(=O)Nc3nc(c(C)c(-c4c(C)cccc4C)n3)OC[C@H]2CC(C)(C)C)C1 (stereo partly shown) [Compound 83] | +++ (+++ is >60%) | < 1000 |
| Cc1cccc(C)c1-c1nc2nc(c1-c1cnn(CC(C)C)c1)OC[C@@H](C)NC(=O)c1cccc(c1)S(=O)(=O)N2 [Compound 124, (11R)-6-(2,6-Dimethylphenyl)-7-(1-isobutylpyrazol-4-yl)-11-methyl-2,2-dioxo-9-oxa-2λ^6-thia-3,5,12,19-tetrazatricyclo[12.3.1.14,8]nonadeca-1(18),4(19),5,7,14,16-hexaen-13-one] | ++ (++ is 30-60%) | 3000 to 30000 |
